Source: the supplement of paper PMC10331698
± gives the standard deviation of the averaged measurements.

How the values were obtained:
Assay in all cases: level (log10 ratio to DMSO vehicle control); higher = higher biomarker level / cell amount than vehicle control
Details in all cases: in DMSO
[1] = compound: CC(C)(C)C(=O)CC(=O)C(F)(F)C(F)(F)C(F)(F)F [(Heptafluorobutanoyl)pivaloylmethane]
Description: (§1)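 BioMAP Diversity Plus panel of 12 human primary cell co-culture systems (3C, 4H, LPS, SAg, BT, BF4T, BE3C, CASM3C, HDF3CGF, KF3CT, MyoF, Mphg). Compounds were added 1 h before stimulation and left for 24 h (MyoF 48 h; BT 72 h for soluble read-outs or 6 d for IgG). Biomarkers were read by ELISA, cytotoxicity by SRB, PBMC viability and proliferation by Alamar Blue. Each well value was divided by the mean of 8 DMSO control wells on the same plate and log10 transformed; duplicate blinded samples were tested at 4 concentrations.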

[2] = compound: FC(F)(F)C(F)(F)C(F)(F)C(F)(F)C(F)(F)C(F)(F)C(F)(F)CCI [1-Iodo-1H,1H,2H,2H-perfluorononane]
Description: as §1

Perfluorooctanamide = compound: NC(=O)C(F)(F)C(F)(F)C(F)(F)C(F)(F)C(F)(F)C(F)(F)C(F)(F)F [Perfluorooctanamide]
Description: as §1

[3] = compound: O=C(O)C(F)(F)C(F)(F)C(F)(F)C(F)(F)C(F)(F)C(F)(F)C(F)(F)C(F)(F)C(F)(F)C(F)(F)C(F)(F)C(F)(F)C(F)(F)F [Perfluorotetradecanoic acid]
Description: as §1

[4] = compound: O=C(O)CCC(F)(F)C(F)(F)C(F)(F)C(F)(F)C(F)(F)F [2H,2H,3H,3H-Perfluorooctanoic acid]
Description: as §1

[5] = compound: O=S(=O)(O)C(F)(F)C(F)(F)C(F)(F)C(F)(F)F [Perfluorobutanesulfonic acid]
Description: as §1

1H,1H-Heptafluorobutanol = compound: OCC(F)(F)C(F)(F)C(F)(F)F [1H,1H-Heptafluorobutanol]
Description: as §1

Row | Test System | level (log10) ([1]; 6700 nM) | level (log10) ([1]; 20000 nM) | level (log10) ([1]; 60000 nM) | level (log10) ([2]; 6700 nM) | level (log10) ([2]; 20000 nM) | level (log10) (Perfluorooctanamide; 6700 nM) | level (log10) (Perfluorooctanamide; 20000 nM) | level (log10) (Perfluorooctanamide; 60000 nM) | level (log10) ([3]; 6700 nM) | level (log10) ([3]; 20000 nM) | level (log10) ([4]; 6700 nM) | level (log10) ([4]; 20000 nM) | level (log10) ([4]; 60000 nM) | level (log10) ([5]; 6700 nM) | level (log10) ([5]; 20000 nM) | level (log10) ([5]; 60000 nM) | level (log10) (1H,1H-Heptafluorobutanol; 6700 nM) | level (log10) (1H,1H-Heptafluorobutanol; 20000 nM) | level (log10) (1H,1H-Heptafluorobutanol; 60000 nM)
1 | HDF3CGF:CD106/VCAM-1 | 0.0085 ± 0.023 | 0.032 ± 0.0071 | -0.0925 ± 0.054 | -0.0925 ± 0.013 | -0.115 ± 0.018 | -0.015 ± 0.0099 | 0.0005 ± 0.005 | -0.016 ± 0.0085 | -0.021 ± 0.0099 | -0.122 ± 0.012 | 0.046 ± 0.082 | 0.044 ± 0.088 | 0.0435 ± 0.071 | -0.02 ± 0.013 | -0.01 ± 0.0014 | -0.025 ± 0.058 | -0.033 ± 0.048 | -0.003 ± 0.079 | -0.0055 ± 0.09
2 | HDF3CGF:CXCL8/IL-8 | 0.0025 ± 0.0035 | -0.001 ± 0.0099 | -0.0005 ± 0.0035 | 0.002 ± 0.0014 | 0.0165 ± 0.019 | -0.0075 ± 0.0021 | -0.0055 ± 0.012 | -0.005 ± 0.0014 | -0.0045 ± 0.012 | 0.008 ± 0.0085 | -0.014 ± 0.014 | -0.009 ± 0.014 | -0.007 ± 0.025 | 0.0025 ± 0.0078 | -0.002 ± 0.0057 | -0.0025 ± 0.0021 | -0.0025 ± 0.0064 | 0 ± 0.0028 | 0.0015 ± 0.0021
3 | HDF3CGF:CXCL9/MIG | 0.0025 ± 0.012 | 0 ± 0.02 | -0.025 ± 0.033 | -0.035 ± 0.0071 | -0.0875 ± 0.049 | -0.014 ± 0.013 | 0.0115 ± 0.012 | 0.0415 ± 0.0078 | 0.0075 ± 0.025 | -0.001 ± 0.0042 | -0.01 ± 0.047 | -0.019 ± 0.047 | -0.036 ± 0.044 | -0.01 ± 0.0085 | -0.0145 ± 0.0092 | -0.0035 ± 0.005 | 0.0035 ± 0.028 | -0.0005 ± 0.022 | -0.008 ± 0.033
4 | HDF3CGF:CXCL10/IP-10 | -0.0195 ± 0.0078 | -0.0105 ± 0.012 | -0.076 ± 0.023 | -0.0265 ± 0.0035 | -0.0645 ± 0.03 | -0.0165 ± 0.019 | 0.003 ± 0.0014 | 0.0305 ± 0.011 | 0.022 ± 0.0099 | -0.0585 ± 0.1 | -0.0015 ± 0.0092 | 0.02 ± 0.0014 | -0.0205 ± 0.054 | -0.0075 ± 0.0078 | -0.0105 ± 0.005 | -0.0195 ± 0.0021 | 0.0105 ± 0.04 | -0.006 ± 0.016 | -0.0055 ± 0.011
5 | HDF3CGF:CXCL11/I-TAC | 0.012 ± 0.014 | -0.0155 ± 0.005 | -0.06 ± 0.013 | -0.0295 ± 0.005 | -0.094 ± 0.018 | -0.006 ± 0.0099 | -0.0185 ± 0.016 | -0.016 ± 0.0057 | 0.0165 ± 0.015 | -0.0705 ± 0.08 | -0.0455 ± 0.12 | -0.084 ± 0.11 | -0.0825 ± 0.11 | -0.0235 ± 0.00071 | 0.005 ± 0.0028 | -0.005 ± 0.0014 | -0.0135 ± 0.022 | -0.0185 ± 0.011 | -0.031 ± 0.061
6 | HDF3CGF:Collagen I | -0.0025 ± 0.029 | -0.044 ± 0.04 | 0.0405 ± 0.044 | 0.0105 ± 0.042 | -0.011 ± 0.058 | -0.0135 ± 0.043 | -0.0555 ± 0.013 | 0.0095 ± 0.081 | -0.0105 ± 0.076 | 0.016 ± 0.078 | 0.0065 ± 0.079 | -0.004 ± 0.078 | 0.0195 ± 0.14 | 0.0175 ± 0.037 | -0.003 ± 0.025 | 0.0345 ± 0.043 | -0.005 ± 0.016 | -0.0215 ± 0.0021 | 0.012 ± 0.017
7 | HDF3CGF:Collagen III | -0.008 ± 0.11 | 0.0535 ± 0.025 | 0.0555 ± 0.018 | -0.063 ± 0.023 | -0.138 ± 0.028 | -0.018 ± 0.014 | -0.02 ± 0.0014 | -0.0085 ± 0.056 | -0.114 ± 0.057 | -0.094 ± 0.13 | -0.064 ± 0.055 | -0.076 ± 0.033 | -0.039 ± 0.061 | -0.013 ± 0.048 | 0.035 ± 0.016 | 0.047 ± 0.016 | -0.0055 ± 0.076 | -0.0285 ± 0.052 | -0.0155 ± 0.044
8 | HDF3CGF:EGFR | 0.027 ± 0.016 | -0.102 ± 0.031 | 0.009 ± 0.055 | 0.016 | 0.0295 ± 0.023 | 0.008 ± 0.013 | 0.0125 ± 0.015 | 0.0375 ± 0.042 | -0.0725 ± 0.036 | 0.029 ± 0.081 | -0.055 ± 0.025 | -0.0435 ± 0.037 | -0.0205 ± 0.03 | 0.0105 ± 0.005 | -0.032 ± 0.048 | -0.0205 ± 0.032 | -0.086 ± 0.031 | -0.0205 ± 0.081 | -0.039 ± 0.1
9 | HDF3CGF:M-CSF | 0.026 ± 0.014 | 0.03 ± 0.038 | 0 ± 0.028 | -0.0895 ± 0.049 | -0.12 ± 0.064 | 0.001 ± 0.023 | 0.0055 ± 0.00071 | 0.027 ± 0.0014 | 0.041 ± 0.038 | 0 ± 0.067 | -0.044 ± 0.089 | -0.067 ± 0.086 | -0.051 ± 0.12 | 0.011 ± 0.0085 | 0.0045 ± 0.0035 | 0.0025 ± 0.005 | 0.0045 ± 0.035 | 0.0335 ± 0.00071 | 0.004 ± 0.02
10 | HDF3CGF:MMP-1 | 0.006 ± 0.0071 | -0.002 ± 0.0014 | 0.01 ± 0.024 | 0.011 ± 0.017 | 0.061 ± 0.04 | 0.0175 ± 0.00071 | 0.003 ± 0.0071 | -0.0025 ± 0.028 | -0.044 ± 0.016 | -0.019 ± 0.0071 | -0.009 ± 0.023 | -0.0385 ± 0.05 | -0.0675 ± 0.076 | 0.0085 ± 0.011 | 0.002 ± 0.013 | -0.0165 ± 0.036 | 0.0025 ± 0.018 | -0.0035 ± 0.0021 | -0.016 ± 0.059
11 | HDF3CGF:PAI-I | 0.011 ± 0.016 | 0.0255 ± 0.00071 | 0.0685 ± 0.049 | 0.0075 ± 0.023 | -0.0095 ± 0.032 | -0.016 ± 0.013 | -0.03 ± 0.0099 | -0.0235 ± 0.0078 | 0.0475 ± 0.023 | 0.0405 ± 0.021 | 0.0145 ± 0.016 | -0.004 ± 0.011 | -0.0085 ± 0.0078 | -0.017 ± 0.034 | 0.007 ± 0.045 | -0.0075 ± 0.03 | -0.037 ± 0.037 | -0.0045 ± 0.025 | -0.054 ± 0.083
12 | HDF3CGF:Proliferation 72hr | -0.0465 ± 0.028 | 0.097 ± 0.031 | 0.094 ± 0.014 | -0.689 ± 0.0092 | -0.815 ± 0.25 | 0.0335 ± 0.049 | 0.004 ± 0.023 | -0.0165 ± 0.022 | 0.0655 ± 0.046 | -0.063 ± 0.054 | -0.002 ± 0.054 | 0.007 ± 0.033 | 0.023 ± 0.018 | -0.0045 ± 0.013 | -0.0195 ± 0.015 | 0.0155 ± 0.05 | -0.011 ± 0.023 | 0.0255 ± 0.032 | -0.029 ± 0.013
13 | HDF3CGF:SRB | 0.0015 ± 0.0021 | 0.0085 ± 0.013 | 0.0345 ± 0.032 | 0.016 ± 0.045 | -0.052 ± 0.071 | 0.01 ± 0.028 | -0.0025 ± 0.033 | 0.0285 ± 0.019 | 0.027 ± 0.014 | 0.0205 ± 0.069 | -0.006 ± 0.034 | 0.0185 ± 0.04 | 0.077 ± 0.028 | 0.018 ± 0.03 | 0.023 ± 0.013 | 0.004 ± 0.033 | -0.047 ± 0.067 | 0.0415 ± 0.011 | 0.025 ± 0.033
14 | HDF3CGF:TIMP-1 | -0.011 ± 0.03 | -0.0005 ± 0.005 | 0.0085 ± 0.018 | -0.0035 ± 0.0035 | 0.047 ± 0.0085 | -0.0405 ± 0.049 | -0.022 ± 0.02 | -0.0575 ± 0.0035 | 0.014 ± 0.037 | -0.0385 ± 0.11 | -0.019 ± 0.064 | -0.01 ± 0.11 | -0.047 ± 0.17 | -0.032 ± 0.064 | 0.0125 ± 0.0078 | 0.0195 ± 0.011 | -0.021 ± 0.017 | -0.028 ± 0.0099 | -0.048 ± 0.11
15 | HDF3CGF:TIMP-2 | -0.0005 ± 0.019 | -0.006 ± 0.013 | -0.019 ± 0.016 | 0.0165 ± 0.011 | 0.0055 ± 0.0064 | -0.0085 ± 0.005 | -0.035 ± 0.011 | -0.0145 ± 0.022 | 0.091 ± 0.0085 | 0.036 ± 0.05 | -0.0325 ± 0.021 | -0.04 ± 0.023 | 0.005 ± 0.047 | 0.0135 ± 0.037 | 0.017 ± 0.023 | 0.031 ± 0.014 | -0.0055 ± 0.025 | 0.018 ± 0.033 | -0.029 ± 0.037
